Reference: patent US6803233B2, “Model for Alzheimer's disease and other neurodegenerative diseases” (priority 2000, dated 2004)

Test system: tangle-like formations
Assay: Electron microscopic immunogold analysis of cultured slices
Format: cell-based, mouse
Conditions: ZPAD 6 days
Method: Lowicryl resin-embedded ultrathin sections (of 70-80 nm thickness) were picked up on either pioloform-coated nickel slot grids or pioloform-coated 400 mesh nickel grids. The grids were incubated on drops of blocking solution, followed by incubation on drops of primary antibodies (AT8 or PHF-1). After the incubation with primary antibodies, the sections were washed in TBS (three times for 10 min each) and in 50 mM Tris-HCl, pH 7.4, containing 0.9% NaCl (“TBS*”; once for 10 min; TBS* has 50 mM Tris-HCl and 0.9% NaCl without KCl, while TBS has 25 mM Tris-HCl and KCl) ) and incubated on drops of goat anti-mouse IgG coupled to 10 nm gold particles (British BioCell Int.). The secondary antibodies were diluted 1:100 in TBS* containing 0.05% polyethylene glycol 20000 (BDH; Merck) and 1% gelatin for 2 hr at 28° C. After additional washing in TBS* (three times for 10 min each) and PBS (once for 10 min), the sections were post-fixed in 2% glutaraldehyde in PBS for 2 min at room temperature and then washed in bidistilled water (three times for 10 min each). Finally, the sections were contrasted with saturated aqueous uranyl acetate followed by staining with lead citrate. […]

Substance: N-CBZ-L-phenylalanyl-L-alanine-diazomethyl-ketone [ZPAD]
- ultrastructure: intracellular inclusions: Numerous intracellular inclusions
